The record followed here is ChEMBL document CHEMBL6182949 (J Med Chem, 2025).

In brackets after ≈: the same amount, converted by molar mass. Activity calls are given as the source filed them.

The nature of data set [1]: AUClast in cynomolgus monkey at 20 mg/kg, po measured up to 24 hrs by LC-MS/MS analysis. The class given is ADME, organism-based, Macaca fascicularis. Conditions: in vivo.
Data set [2] can be described thus: Volume of distribution at steady state in male C57BL/6 mouse at 2 mg/kg, iv measured up to 24 hrs by LC-MS/MS analysis. The class given is ADME, organism-based. Conditions: in vivo, read-out: Vdss.
The nature of data set [3]: Cmax in Beagle dog at 10 mg/kg, po measured up to 24 hrs by LC-MS/MS analysis. The class given is ADME, organism-based, Canis lupus familiaris. Conditions: in vivo.
A further data set addresses CYP2C19 (Homo sapiens, UniProt P33261). Kind of data set: Inhibition of CYP2C19 in human liver microsome using (S)-mephenytoin as substrate at 10 uM preincubated for 5 mins followed by NADPH addition and measured after 30 mins by LC-MS/MS analysis relative to control. In kind it is ADME. The conditions noted are these: human liver microsomes, probe (S)-mephenytoin, time 35 min.

In data set [4] the test system is Mus musculus. In words: Anti-psoriasis effect in IMQ-induced C57BL/6 mouse assessed as reduction in spleen weight at 30 mg/kg administered topically twice daily for 6 days and measured after 24 hrs. In kind it is functional, organism-based. Conditions: time 7.0 day.
Data set [5] in a line: Half life in Beagle dog at 2 mg/kg, iv measured up to 24 hrs by LC-MS/MS analysis. The class given is ADME, organism-based, Canis lupus familiaris. The conditions noted are these: in vivo.
A short description of data set [6]: Permeability across basolateral to apical side in human Caco-2 cells incubated for 120 mins by LC-MS/MS analysis. The conditions noted are these: read-out: permeability. In kind it is ADME, cell-based. For orientation: Passage across Caco-2 layers is used to estimate intestinal permeability.
Data set [7] can be described thus: Kinetic solubility of compound in FeSSIF at pH 5 incubated for 2 hr by LC-MS analysis. Conditions: read-out: Kinetic_solubility. The class given is physicochemical.
The target in another data set is T1, CYP1A2 (Homo sapiens, UniProt P05177).
T1 sequence (P05177 whole entry): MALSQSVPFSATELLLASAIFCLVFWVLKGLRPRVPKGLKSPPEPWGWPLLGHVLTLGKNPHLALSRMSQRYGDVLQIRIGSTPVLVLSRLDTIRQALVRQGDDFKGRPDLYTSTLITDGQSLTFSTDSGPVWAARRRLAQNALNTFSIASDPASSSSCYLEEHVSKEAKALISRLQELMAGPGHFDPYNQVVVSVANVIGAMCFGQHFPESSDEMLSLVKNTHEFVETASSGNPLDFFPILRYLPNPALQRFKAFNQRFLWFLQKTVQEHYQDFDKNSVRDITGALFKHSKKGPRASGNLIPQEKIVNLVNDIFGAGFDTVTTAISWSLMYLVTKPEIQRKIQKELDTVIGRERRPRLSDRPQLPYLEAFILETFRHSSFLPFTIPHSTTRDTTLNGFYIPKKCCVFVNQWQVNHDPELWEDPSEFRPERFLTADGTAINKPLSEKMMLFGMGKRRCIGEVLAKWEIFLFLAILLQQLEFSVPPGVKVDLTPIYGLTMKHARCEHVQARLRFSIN
In words: Inhibition of CYP1A2 in human liver microsome using phenacetin as substrate at 10 uM preincubated for 5 mins followed by NADPH addition and measured after 20 mins by LC-MS/MS analysis relative to control. In kind it is ADME. Conditions: human liver microsomes, probe phenacetin, time 25 min. Background: Microsomes from liver hold many membrane-bound enzymes, among them those of drug oxidation.

Data set [8] addresses T2, Protein cereblon/Interleukin-1 receptor-associated kinase 4 (Mus musculus) (UniProt Q8C7D2+Q8R4K2). Kind of data set: In-vivo PROTAC activity at C57BL/6 mouse assessed as reduction in IRAK4 level in spleen at 100 mg/kg, po measured after 24 hrs by Western blot analysis. In kind it is functional, organism-based. The arrangement: scale not given: the % may be the effect or the level left. (In western blotting, separated proteins are transferred to a membrane and probed.)

In data set [9] the test system is Mus musculus. Kind of data set: Anti-arthritic activity against collagen-induced arthritis DBA/1 mouse model assessed as improvement in delta paw volume at 100 mg/kg, po administered for 14 days […]. The class given is functional, organism-based. The conditions noted are these: time 14.0 day.
For data set [10], the target named is Protein cereblon/Interleukin-1 receptor-associated kinase 4 (Homo sapiens, UniProt Q9NWZ3+Q96SW2). Kind of data set: PROTAC activity at CRBN/IRAK4 in human PBMC cells assessed as induction of IRAK4 degradation incubated for 24 hrs by HiBiT lytic reagent based analysis. The class given is cell-based.
Data set [11] can be described thus: AUClast in cynomolgus monkey at 1 mg/kg, iv measured up to 24 hrs by LC-MS/MS analysis. The class given is ADME, organism-based, Macaca fascicularis. Conditions: in vivo.
The next data set concerns the target CYP3A4 (Homo sapiens, UniProt P08684). In words: Inhibition of CYP3A4 in human liver microsome using midazolam as substrate at 10 uM preincubated for 5 mins followed by NADPH addition and measured after 10 mins by LC-MS/MS analysis relative to control. The class given is ADME. Conditions: human liver microsomes, probe midazolam, time 15 min.
Data set [12] concerns the target T2, Protein cereblon/Interleukin-1 receptor-associated kinase 4 (Mus musculus). Kind of data set: In-vivo PROTAC activity at C57BL/6 mouse assessed as reduction in IRAK4 level in spleen at 30 mg/kg, po measured after 24 hrs by Western blot analysis. In kind it is functional, organism-based. The arrangement: scale not given: the % may be the effect or the level left.

A further data set addresses T3, CYP2C8 (Homo sapiens, UniProt P10632).
T3 sequence (P10632 whole entry): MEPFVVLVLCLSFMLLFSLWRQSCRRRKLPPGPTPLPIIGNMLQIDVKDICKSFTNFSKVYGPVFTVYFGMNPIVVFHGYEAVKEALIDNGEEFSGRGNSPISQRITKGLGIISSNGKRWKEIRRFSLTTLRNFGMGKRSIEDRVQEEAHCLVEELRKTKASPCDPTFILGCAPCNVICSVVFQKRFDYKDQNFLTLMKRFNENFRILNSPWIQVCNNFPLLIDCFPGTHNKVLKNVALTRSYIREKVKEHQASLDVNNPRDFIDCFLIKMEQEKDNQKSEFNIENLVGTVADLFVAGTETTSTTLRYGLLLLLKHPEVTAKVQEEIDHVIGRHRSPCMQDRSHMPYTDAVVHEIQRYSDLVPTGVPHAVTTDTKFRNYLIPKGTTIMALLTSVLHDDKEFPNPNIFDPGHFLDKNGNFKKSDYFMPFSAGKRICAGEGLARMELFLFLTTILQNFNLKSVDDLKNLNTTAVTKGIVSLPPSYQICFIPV
In words: Inhibition of CYP2C8 in human liver microsome using amodiaquine as substrate at 10 uM preincubated for 5 mins followed by NADPH addition and measured after 5 mins by LC-MS/MS analysis relative to control. The class given is ADME. Conditions: human liver microsomes, probe amodiaquine, time 10 min.

Data set [13] deals with Mus musculus. Kind of data set: Anti-arthritic activity against collagen-induced arthritis DBA/1 mouse model assessed as improvement in delta paw volume at 30 mg/kg, po administered for 14 days […]. In kind it is functional, organism-based. Conditions: time 14.0 day.
The nature of data set [14]: Cmax in male C57BL/6 mouse at 2 mg/kg, iv measured up to 24 hrs by LC-MS/MS analysis. The class given is ADME, organism-based. The conditions noted are these: in vivo.
Data set [15] in a line: Permeability across apical to basal side in human Caco-2 cells incubated for 120 mins by LC-MS/MS analysis. The class given is ADME, cell-based. The conditions noted are these: read-out: permeability.
Data set [16] in a line: Metabolic stability in dog liver microsome assessed as half life at 1 uM measured up to 60 mins in presence of NADPH by LC-MS/MS analysis. The class given is ADME, Canis lupus familiaris. The conditions noted are these: liver microsomes.
Data set [17] in a line: Half life in Sprague-Dawley rat at 2 mg/kg, iv measured up to 24 hrs by LC-MS/MS analysis. In kind it is ADME, organism-based. The conditions noted are these: in vivo.
A short description of data set [18]: Metabolic stability human hepatocyte assessed as half life at 1 uM measured up to 120 mins by LC-MS/MS analysis. Conditions: hepatocytes. The class given is ADME, cell-based.
For data set [19], the system named is Mus musculus. In words: Anti-arthritic activity against collagen-induced arthritis DBA/1 mouse model assessed as reduction in pathological score at 30 mg/kg, po administered for 14 days. The conditions noted are these: time 14.0 day. In kind it is functional, organism-based.

T2 sequence (Q8C7D2 whole entry, looked up): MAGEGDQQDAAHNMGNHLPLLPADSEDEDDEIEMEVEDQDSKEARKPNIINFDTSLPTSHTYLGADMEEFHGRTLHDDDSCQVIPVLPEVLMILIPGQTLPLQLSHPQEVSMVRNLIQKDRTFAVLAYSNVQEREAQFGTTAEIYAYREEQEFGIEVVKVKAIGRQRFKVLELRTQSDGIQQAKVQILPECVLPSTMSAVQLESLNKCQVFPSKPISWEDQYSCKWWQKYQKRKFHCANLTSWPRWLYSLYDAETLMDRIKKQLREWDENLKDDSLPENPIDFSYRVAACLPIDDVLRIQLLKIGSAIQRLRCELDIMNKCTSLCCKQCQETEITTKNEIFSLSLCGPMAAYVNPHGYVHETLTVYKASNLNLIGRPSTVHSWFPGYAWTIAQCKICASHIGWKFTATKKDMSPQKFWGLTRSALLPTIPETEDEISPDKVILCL
T2 sequence (Q8R4K2 whole entry, looked up): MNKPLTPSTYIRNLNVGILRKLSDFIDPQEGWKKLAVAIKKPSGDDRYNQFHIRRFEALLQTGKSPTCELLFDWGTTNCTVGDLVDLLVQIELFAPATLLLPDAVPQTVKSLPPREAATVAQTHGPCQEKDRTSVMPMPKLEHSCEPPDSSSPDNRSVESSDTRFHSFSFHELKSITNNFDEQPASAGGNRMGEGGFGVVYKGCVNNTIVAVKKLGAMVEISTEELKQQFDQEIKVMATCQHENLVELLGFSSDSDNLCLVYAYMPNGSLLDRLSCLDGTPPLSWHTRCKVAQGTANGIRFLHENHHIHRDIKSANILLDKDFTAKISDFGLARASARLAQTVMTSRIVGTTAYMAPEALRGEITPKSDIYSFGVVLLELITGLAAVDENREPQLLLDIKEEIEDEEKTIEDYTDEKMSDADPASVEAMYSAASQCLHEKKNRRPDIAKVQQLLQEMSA
Chain of CYP2C19 (P33261 whole entry): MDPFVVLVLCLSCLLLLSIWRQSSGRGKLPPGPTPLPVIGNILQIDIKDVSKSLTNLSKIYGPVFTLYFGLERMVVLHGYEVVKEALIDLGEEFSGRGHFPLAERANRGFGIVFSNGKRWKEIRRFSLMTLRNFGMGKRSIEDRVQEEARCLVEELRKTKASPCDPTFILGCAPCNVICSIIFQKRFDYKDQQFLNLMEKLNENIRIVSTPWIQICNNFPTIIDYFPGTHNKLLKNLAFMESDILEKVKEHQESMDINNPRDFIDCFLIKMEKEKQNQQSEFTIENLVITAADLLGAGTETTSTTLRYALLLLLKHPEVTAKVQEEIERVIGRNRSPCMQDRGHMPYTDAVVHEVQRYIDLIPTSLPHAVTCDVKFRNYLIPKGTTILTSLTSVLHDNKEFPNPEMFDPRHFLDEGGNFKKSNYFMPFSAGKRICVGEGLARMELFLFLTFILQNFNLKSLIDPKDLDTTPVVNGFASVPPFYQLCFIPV
Chain of CYP3A4 (P08684 whole entry): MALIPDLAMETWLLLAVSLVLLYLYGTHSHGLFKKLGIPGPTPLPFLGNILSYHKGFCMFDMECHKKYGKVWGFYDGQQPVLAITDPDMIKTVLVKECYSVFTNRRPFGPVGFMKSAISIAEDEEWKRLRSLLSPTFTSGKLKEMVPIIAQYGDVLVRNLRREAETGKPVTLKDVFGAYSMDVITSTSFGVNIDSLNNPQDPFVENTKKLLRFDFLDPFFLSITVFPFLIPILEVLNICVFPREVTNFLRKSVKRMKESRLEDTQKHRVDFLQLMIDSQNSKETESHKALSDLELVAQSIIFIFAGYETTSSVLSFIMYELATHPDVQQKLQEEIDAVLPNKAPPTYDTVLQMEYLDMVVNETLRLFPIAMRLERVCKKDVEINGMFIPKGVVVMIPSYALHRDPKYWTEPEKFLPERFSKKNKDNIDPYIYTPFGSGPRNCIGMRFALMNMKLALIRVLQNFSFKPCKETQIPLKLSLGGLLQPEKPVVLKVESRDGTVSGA
Chain of Protein cereblon/Interleukin-1 receptor-associated kinase 4 (Q9NWZ3 whole entry): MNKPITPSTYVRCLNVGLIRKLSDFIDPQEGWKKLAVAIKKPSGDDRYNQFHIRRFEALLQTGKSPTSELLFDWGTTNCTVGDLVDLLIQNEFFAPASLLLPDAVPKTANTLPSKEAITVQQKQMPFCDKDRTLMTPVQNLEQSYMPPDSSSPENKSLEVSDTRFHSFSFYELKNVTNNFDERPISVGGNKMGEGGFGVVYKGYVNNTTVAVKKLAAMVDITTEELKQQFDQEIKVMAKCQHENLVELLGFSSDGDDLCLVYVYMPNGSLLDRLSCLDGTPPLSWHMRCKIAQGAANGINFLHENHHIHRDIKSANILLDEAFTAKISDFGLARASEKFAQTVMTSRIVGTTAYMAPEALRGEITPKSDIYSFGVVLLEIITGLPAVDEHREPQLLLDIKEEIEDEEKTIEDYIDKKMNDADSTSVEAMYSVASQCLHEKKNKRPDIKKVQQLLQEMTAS
Chain of Protein cereblon/Interleukin-1 receptor-associated kinase 4 (Q96SW2 whole entry): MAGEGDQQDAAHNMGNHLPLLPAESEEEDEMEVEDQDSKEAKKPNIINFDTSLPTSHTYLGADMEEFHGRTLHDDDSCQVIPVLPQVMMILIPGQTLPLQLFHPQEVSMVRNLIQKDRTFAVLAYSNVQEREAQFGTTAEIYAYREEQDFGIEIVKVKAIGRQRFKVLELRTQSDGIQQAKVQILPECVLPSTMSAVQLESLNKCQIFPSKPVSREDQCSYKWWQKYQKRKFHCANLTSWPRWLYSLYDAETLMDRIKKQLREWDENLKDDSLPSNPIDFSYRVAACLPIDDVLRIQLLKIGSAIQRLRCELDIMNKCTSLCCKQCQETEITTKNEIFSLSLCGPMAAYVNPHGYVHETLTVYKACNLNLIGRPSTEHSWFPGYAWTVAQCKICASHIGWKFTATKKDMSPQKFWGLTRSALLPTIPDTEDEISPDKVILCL

What is called AUC(0-t) is the area under the concentration-time curve up to a stated or last time point. A word on the Cmax: it is the maximum level reached in the sampled fluid or tissue. The term inhibition denotes the share of the control response that was lost under treatment. One may read the DC50 as the concentration giving 50% degradation. By half-life is commonly meant the time needed for the level to fall by half in the phase considered. For `Cn1c(=O)n(C2CCC(=O)NC2=O)c2cccc(C#CCO[C@H]3CC[C@H](CN4CCC5(CC4)Cc4cc(NC(=O)c6coc7cccnc67)c(N6CCC(CO)CC6)cc4O5)CC3)c21` (stereo partly drawn), the area under the curve AUC(0-t) at 24 h in data set [1] was determined as 4000 ng·h/mL; in [11], 1820 ng·h/mL. The Vd in data set [2] came out at 0.88 L/kg. Further, the maximum concentration (Cmax) turned out to be 360 ng/mL in data set [3] and 1870 ng/mL in [14]. For the same compound, the inhibition at 0.5 h, 10 µM at CYP2C19 is 45.1%. Also, the result in the data set on Mus musculus [4], with Mus musculus [9], in the data set on Mus musculus [13] and with Mus musculus [19] was Active. In [5], this compound came in with a t1/2 of 8.1 h. Besides, the Papp B→A at 2 h in data set [6] came out at 0.2 ×10⁻⁶ cm/s. Besides, the solubility kinetic at 2 h in data set [7] amounted to 7.78 µg/mL (≈ 8.94 µM). At CYP1A2, the inhibition at 20 min, 10 µM turned out to be 8.32%. Further, the Activity in data set [8] and in [12] was greater than 80% throughout. Also, the half-maximal degradation concentration (DC50) in data set [10] amounted to 0.43 nM. Also, on CYP3A4, the inhibition at 10 min, 10 µM stood at 19.1%. On CYP2C8, this compound returned an inhibition at 5 min, 10 µM of 12.4%. Moreover, the Papp A→B at 2 h in [15] worked out at 0.09 ×10⁻⁶ cm/s. For the same compound, the half-life at 1 µM was greater than 3.07 h in data set [16] and 2.5 h in data set [18]. The half-life in data set [17] is 4 h.
